Our source for the IC50 and viability, T/C values is PubChem BioAssay AID2060351 (Molecular Pharmacology Branch, DTP, NCI, 2025).

The assay concerns 521955-158-R7-J2-PDC spheroids, viability % test/control. Nature of the assay: Anticancer human tumor 521955-158-R7-J2-PDC patient-derived pancreatic carcinoma cell line growth inhibition [TAK]. The following applies: spheroids with HUVEC and MSC; for viability, T/C: stronger effect = lower value. From the text:
Combinatorial screen of targeted agents with TAK-243 and ipatasertib in multi-cell type tumor spheroids
A high-throughput screen of multi-cell type tumor spheroids was designed to identify active combinations of targeted small molecules and TAK-243 or ipatasertib. Complex spheroids include a stromal component modeled by human endothelial cells (HUVEC) and fibroblasts modeled by human mesenchymal stem cells (MSCs). The concentration ranges selected for each drug and investigational agent were based upon clinically achievable concentrations if the clinical Cmax of the agent was known.
Compounds. The drugs and investigational agents: TAK-243 (785004), ipatasertib (767898), everolimus (733504), selumetinib (741078), bortezomib (756655), trametinib (758246), ixazomib (758254), vemurafenib (761431), dabrafenib (764134), sapanisertib (764658), alpelisib (765974), and copanlisib (816437), were obtained from the National Cancer Institute (NCI) Developmental Therapeutics Program Chemical Repository. The FDA-approved anticancer drug set is available from the NCI Developmental Therapeutics Program. […] The stock solutions were prepared in dimethyl sulfoxide (DMSO, Sigma-Aldrich, St. Louis, MO, cat. D2650) at 800-fold the tested concentration and stored at -70 degrees C prior to their use. All drugs and investigational agents were tested over a range starting from a high concentration at or near the clinical Cmax and decreasing in half-log increments. If the clinical Cmax for an agent had not been determined, the highest concentration tested was 10 microM.
NCI60 Cell Culture. NCI60 cell lines were obtained from the NCI Developmental Therapeutics Program Tumor Repository. For each lot of cells, the Repository performed Applied Biosystems AmpFLSTR Identifiler testing with PCR amplification to confirm consistency with the published Identifier STR profile for each cell line. Cells were kept in continuous culture for no more than 20 passages. The optimal seeding densities for each of the cell lines at each time point assessed were determined prior to performing the concentration response studies. Briefly, the NCI60 human tumor lines were grown as monolayers in RPMI 1640 medium supplemented with 10% FBS and 2 mmol/L L-glutamine.
An additional 2 lines were from the NCI60 cell line panel including melanomas, MALME-3M and SK-MEL-2. Pooled donor human umbilical vein endothelial cells (HUVEC, Lonza, cat. CC-2519) and human mesenchymal stem cells (hMSC, Lonza, cat. PT-2501) were purchased from Lonza (Walkersville, MD).
PDMR cell lines were grown in complete medium (DC medium): Dulbecco's modified Eagle's medium (DMEM)/F12 supplemented with 5% fetal bovine serum (FBS), 2 mM L-glutamine, 100 U/mL penicillin and 100 µg/ml streptomycin, 0.4 µg/ml hydrocortisone, 10 ng/ml epidermal growth factor (EGF) recombinant human protein, 24 µg/mL adenine, and 0.1 mg/mL primocin. During culture from frozen stock vials, PDMR cells were cultured in the same medium containing 10 µM Y-27632 (see Table 3). The PDCs were cultured in complete DMEM/F12 media without 10 microM Y-27632 dihydrochloride for at least two passages prior to the screen. The pooled donor HUVEC and hMSC were cultured in endothelial cell growth medium 2 (PromoCell, Heidelberg, Germany, cat. C-22011) and mesenchymal stem cell growth medium 2 (PromoCell, cat. C-28009), respectively. For all experiments, HUVEC and hMSC were used at passages </=5.
For the pre-screen, cell seeding densities were determined from a titration spanning the range from 5,000 to 313 cells per well. The mct-spheroids including 60% malignant cells, 25% HUVEC and 15% MSC dispensed as a mixture into U-bottom Ultra-Low Attachment 384-well plates (Corning, NY)
High-throughput Drug Combination Screening.
Prior to their inoculation into 384-well plates, malignant cells, HUVEC, and hMSC were removed from T flasks using TrypLE express (Thermo Fisher Scientific, cat. 12605036) and harvested by centrifugation for 5 min at 233 x g. […]

Where [1] appears, read: curve of first compound, second compound 0.3 µM.
[2] abbreviates: curve of first compound, second compound 0.949 µM.
Where [3] appears, read: curve of first compound, second compound 3 µM.
Where [4] appears, read: curve of first compound, second compound 9.49 µM.
[5] abbreviates: curve of first compound, second compound 30 µM.
The mark [6] stands for this setting: second compound 0.3 µM, first compound 0.00316 µM.
The mark [7] stands for this setting: second compound 0.3 µM, first compound 0.01 µM.
The mark [8] stands for this setting: second compound 0.3 µM, first compound 0.0316 µM.
Where [9] appears, read: second compound 0.3 µM, first compound 0.1 µM.
The mark [10] stands for this setting: second compound 0.949 µM, first compound 0.00316 µM.
Setting [11] is: second compound 0.949 µM, first compound 0.01 µM.
Where [12] appears, read: second compound 0.949 µM, first compound 0.0316 µM.
[13] abbreviates: second compound 0.949 µM, first compound 0.1 µM.
Setting [14] is: second compound 3 µM, first compound 0.00316 µM.
Where [15] appears, read: second compound 3 µM, first compound 0.01 µM.
The mark [16] stands for this setting: second compound 3 µM, first compound 0.0316 µM.
Setting [17] is: second compound 3 µM, first compound 0.1 µM.
Where [18] appears, read: second compound 9.49 µM, first compound 0.00316 µM.
Where [19] appears, read: second compound 9.49 µM, first compound 0.01 µM.
Where [20] appears, read: second compound 9.49 µM, first compound 0.0316 µM.
Setting [21] is: second compound 9.49 µM, first compound 0.1 µM.
Setting [22] is: second compound 30 µM, first compound 0.00316 µM.
Setting [23] is: second compound 30 µM, first compound 0.01 µM.
Where [24] appears, read: second compound 30 µM, first compound 0.0316 µM.
Setting [25] is: second compound 30 µM, first compound 0.1 µM.

Values joined by “and” are separate entries in the source; they are usually repeats but may differ in a detail not shown here. Equal entries are not always repeated. Some results are limits rather than exact numbers.
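Note: spheroids exposed to compound for 7 days before readout.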

In general, IC50 refers to the midpoint of a concentration-inhibition curve. The term viability, T/C denotes the ratio of treated to control. For the molecule `COc1c(OCCCN2CCOCC2)ccc2c3n(c(=NC(=O)c4cnc(N)nc4)nc12)CCN3` + CC(C)NCC(C(=O)N1CCN(c2ncnc3c2C(C)CC3O)CC1)c1ccc(Cl)cc1, the IC50 by setting is: under setting [1], 21.9 nM; under setting [2], 22 nM; under setting [3], 7.21 nM; under setting [4], 6.2 nM; under setting [5], 3.38 nM. In addition, the viability, T/C reads like this: under setting [6], 102%; under setting [7], 67.6%; under setting [8], 40.9%; under setting [9], 27.5%; (second compound 0.3 µM, first compound 0.316 µM) 13.7%; (second compound 0.3 µM, first compound 1 µM) 11%. Further, the viability, T/C runs as follows: under setting [10], 81%; under setting [11], 66.5%; under setting [12], 43.1%; under setting [13], 19.6%; (second compound 0.949 µM, first compound 0.316 µM) 13.7%; (second compound 0.949 µM, first compound 1 µM) 9.02%. Moreover, the viability, T/C under setting [14] was 55%; the viability, T/C under setting [15] was 51.1%; the viability, T/C under setting [16] was 29.2%; the viability, T/C under setting [17] was 24.9%; the viability, T/C (second compound 3 µM, first compound 0.316 µM) is 13%; the viability, T/C (second compound 3 µM, first compound 1 µM) is 10.4%. Further, the viability, T/C was 64.3% under setting [18]; 36.3% under setting [19]; 31% under setting [20]; 21.7% under setting [21]; 14.3% (second compound 9.49 µM, first compound 0.316 µM); 12.2% (second compound 9.49 µM, first compound 1 µM). Further, the viability, T/C was 50.4% under setting [22]; 40.6% under setting [23]; 27.8% under setting [24]; 19.8% under setting [25]; 17.1% (second compound 30 µM, first compound 0.316 µM); 11.5% (second compound 30 µM, first compound 1 µM).
For the molecule `CC(C)(C)c1nc(-c2cccc(NS(=O)(=O)c3c(F)cccc3F)c2F)c(-c2ccnc(N)n2)s1`, the viability, T/C (compound 0.0316 µM) was 105% and 103%; the viability, T/C (compound 0.1 µM) is 113% and 78.3%; the viability, T/C (compound 0.316 µM) is 99% and 128%; the viability, T/C (compound 1 µM) was 101% and 131%; the viability, T/C (compound 3.16 µM) is 104% and 97.7%; the viability, T/C (compound 10 µM) is 79% and 93.3%. Also, the IC50 (curve of compound) was above 10000 nM.
On to `CC(C)CC(NC(=O)CNC(=O)c1cc(Cl)ccc1Cl)B1OC(=O)CC(CC(=O)O)(C(=O)O)O1` (centres undefined) + CC(C)NCC(C(=O)N1CCN(c2ncnc3c2C(C)CC3O)CC1)c1ccc(Cl)cc1, for which the IC50 reads like this: under setting [1], 38.8 nM; under setting [2], 47.4 nM; under setting [3], 42 nM; under setting [4], 35 nM; under setting [5], 33.3 nM. In addition, the viability, T/C was 103% (second compound 0.3 µM, first compound 0.000316 µM); 71.9% (second compound 0.3 µM, first compound 0.001 µM); 96.8% under setting [6]; 104% under setting [7]; 60.1% under setting [8]; 3.16% under setting [9]. Further, the viability, T/C is 119% (second compound 0.949 µM, first compound 0.000316 µM); 92.2% (second compound 0.949 µM, first compound 0.001 µM); 87.6% under setting [10]; 103% under setting [11]; 74.7% under setting [12]; 4.69% under setting [13]. Further, the viability, T/C by setting is: (second compound 3 µM, first compound 0.000316 µM) 85.6%; (second compound 3 µM, first compound 0.001 µM) 90.8%; under setting [14], 109%; under setting [15], 85.9%; under setting [16], 64.8%; under setting [17], 5.79%. Further, the viability, T/C reads like this: (second compound 9.49 µM, first compound 0.000316 µM) 116%; (second compound 9.49 µM, first compound 0.001 µM) 98.8%; under setting [18], 82.7%; under setting [19], 86.4%; under setting [20], 58.1%; under setting [21], 4.1%. The viability, T/C (second compound 30 µM, first compound 0.000316 µM) was 95.1%; the viability, T/C (second compound 30 µM, first compound 0.001 µM) was 105%; the viability, T/C under setting [22] is 88.7%; the viability, T/C under setting [23] was 80.9%; the viability, T/C under setting [24] is 52.4%; the viability, T/C under setting [25] was 2.42%.
On to `COc1c(OCCCN2CCOCC2)ccc2c3n(c(=NC(=O)c4cnc(N)nc4)nc12)CCN3`, for which the viability, T/C (compound 0.00316 µM) is 87.5% and 86.9%; the viability, T/C (compound 0.01 µM) was 67.9% and 63.5%; the viability, T/C (compound 0.0316 µM) is 41.4% and 50.6%; the viability, T/C (compound 0.1 µM) was 26.5% and 25.3%; the viability, T/C (compound 0.316 µM) is 14.9% and 13.6%; the viability, T/C (compound 1 µM) is 10% and 10.6%. In addition, the IC50 (curve of compound) is 22.6 nM and 25.2 nM.
